Assays:
[1] = molecular target: T1, 5-hydroxytryptamine receptor 2B (Homo sapiens, UniProt P41595); assay: GPCRScan assay: inhibition of 5-HT2B; parameters: radioligand conc. used [nm] 1.0 – 2.0, parental cells stable HEK
[2] = molecular target: T2, Sodium-dependent serotonin transporter (Homo sapiens, UniProt P31645); assay: GPCRScan assay: inhibition of SERT; parameters: radioligand conc. used [nm] 1.5 – 2.0, parental cells stable HEK
[3] = molecular target: T3, Histamine H1 receptor (Homo sapiens, UniProt P35367); assay: GPCRScan assay: inhibition of H1; parameters: radioligand conc. used [nm] 0.6 – 2.0, parental cells stable HEK
[4] = molecular target: T4, Sigma non-opioid intracellular receptor 1 (Homo sapiens, UniProt Q99720); assay: GPCRScan assay: inhibition of Sigma 1; parameters: radioligand conc. used [nm] 4.0 – 5.0, parental cells HEKT
[5] = molecular target: 5-hydroxytryptamine receptor 1A (Homo sapiens) (UniProt P08908); conditions: Compound concentration 10.0 uM
[6] = molecular target: 5-hydroxytryptamine receptor 1B (Homo sapiens) (UniProt P28222); conditions: Compound concentration 10.0 uM
[7] = molecular target: 5-hydroxytryptamine receptor 1D (Homo sapiens) (UniProt P28221); conditions: Compound concentration 10.0 uM
[8] = molecular target: 5-hydroxytryptamine receptor 1E (Homo sapiens) (UniProt P28566); conditions: Compound concentration 10.0 uM
[9] = molecular target: 5-hydroxytryptamine receptor 2A (Homo sapiens) (UniProt P28223); conditions: Compound concentration 10.0 uM
[10] = molecular target: T1, 5-hydroxytryptamine receptor 2B; conditions: Compound concentration 10.0 uM
[11] = molecular target: 5-hydroxytryptamine receptor 2C (Homo sapiens) (UniProt P28335); conditions: Compound concentration 10.0 uM
[12] = molecular target: 5-hydroxytryptamine receptor 3A (Homo sapiens) (UniProt P46098); conditions: Compound concentration 10.0 uM
[13] = molecular target: 5-hydroxytryptamine receptor 5A (Homo sapiens) (UniProt P47898); conditions: Compound concentration 10.0 uM
[14] = molecular target: 5-hydroxytryptamine receptor 6 (Homo sapiens) (UniProt P50406); conditions: Compound concentration 10.0 uM
[15] = molecular target: 5-hydroxytryptamine receptor 7 (Homo sapiens) (UniProt P34969); conditions: Compound concentration 10.0 uM
[16] = molecular target: D(2) dopamine receptor (Homo sapiens) (UniProt P14416); conditions: Compound concentration 10.0 uM
[17] = molecular target: D(3) dopamine receptor (Homo sapiens) (UniProt P35462); conditions: Compound concentration 10.0 uM
[18] = molecular target: D(4) dopamine receptor (Homo sapiens) (UniProt P21917); conditions: Compound concentration 10.0 uM
[19] = molecular target: D(1B) dopamine receptor (Homo sapiens) (UniProt P21918); conditions: Compound concentration 10.0 uM
[20] = molecular target: T2, Sodium-dependent serotonin transporter; conditions: Compound concentration 10.0 uM
[21] = molecular target: Sodium-dependent noradrenaline transporter (Homo sapiens) (UniProt P23975); conditions: Compound concentration 10.0 uM
[22] = molecular target: Sodium-dependent dopamine transporter (Homo sapiens) (UniProt Q01959); conditions: Compound concentration 10.0 uM
[23] = molecular target: Mu-type opioid receptor (Homo sapiens) (UniProt P35372); conditions: Compound concentration 10.0 uM
[24] = molecular target: Delta-type opioid receptor (Homo sapiens) (UniProt P41143); conditions: Compound concentration 10.0 uM
[25] = molecular target: Kappa-type opioid receptor (Homo sapiens) (UniProt P41145); conditions: Compound concentration 10.0 uM
[26] = molecular target: T5, GABA-A receptor; anion channel (Rattus norvegicus) (UniProt O09028+P15431+P18506+P18508+P19969+P20236+P23574+P23576+P28471+P28473+P30191+P62813+P63079+P63138+Q91ZM7+Q9ES14); conditions: Compound concentration 10.0 uM
[27] = molecular target: T3, Histamine H1 receptor; conditions: Compound concentration 10.0 uM
[28] = molecular target: Histamine H2 receptor (Homo sapiens) (UniProt P25021); conditions: Compound concentration 10.0 uM
[29] = molecular target: Histamine H3 receptor (Homo sapiens) (UniProt Q9Y5N1); conditions: Compound concentration 10.0 uM
[30] = molecular target: Histamine H4 receptor (Homo sapiens) (UniProt Q9H3N8); conditions: Compound concentration 10.0 uM
[31] = molecular target: Alpha-1A adrenergic receptor (Homo sapiens) (UniProt P35348); conditions: Compound concentration 10.0 uM
[32] = molecular target: Alpha-1B adrenergic receptor (Homo sapiens) (UniProt P35368); conditions: Compound concentration 10.0 uM
[33] = molecular target: Alpha-2A adrenergic receptor (Homo sapiens) (UniProt P08913); conditions: Compound concentration 10.0 uM
[34] = molecular target: Alpha-2B adrenergic receptor (Homo sapiens) (UniProt P18089); conditions: Compound concentration 10.0 uM
[35] = molecular target: Alpha-2C adrenergic receptor (Homo sapiens) (UniProt P18825); conditions: Compound concentration 10.0 uM
[36] = molecular target: Beta-1 adrenergic receptor (Homo sapiens) (UniProt P08588); conditions: Compound concentration 10.0 uM
[37] = molecular target: Beta-2 adrenergic receptor (Homo sapiens) (UniProt P07550); conditions: Compound concentration 10.0 uM
[38] = molecular target: Muscarinic acetylcholine receptor M1 (Homo sapiens) (UniProt P11229); conditions: Compound concentration 10.0 uM
[39] = molecular target: Muscarinic acetylcholine receptor M2 (Homo sapiens) (UniProt P08172); conditions: Compound concentration 10.0 uM
[40] = molecular target: Muscarinic acetylcholine receptor M5 (Homo sapiens) (UniProt P08912); conditions: Compound concentration 10.0 uM
[41] = molecular target: Beta-3 adrenergic receptor (Homo sapiens) (UniProt P13945); conditions: Compound concentration 10.0 uM
[42] = molecular target: T5, GABA-A receptor; anion channel (Rattus norvegicus); conditions: Compound concentration 10.0 uM; remark: listed apart in the source
[43] = species on record: Rattus norvegicus; conditions: Compound concentration 10.0 uM
[44] = molecular target: Alpha-1D adrenergic receptor (Homo sapiens) (UniProt P25100); conditions: Compound concentration 10.0 uM
[45] = molecular target: T4, Sigma non-opioid intracellular receptor 1; conditions: Compound concentration 10.0 uM

T1 sequence (P41595 whole entry): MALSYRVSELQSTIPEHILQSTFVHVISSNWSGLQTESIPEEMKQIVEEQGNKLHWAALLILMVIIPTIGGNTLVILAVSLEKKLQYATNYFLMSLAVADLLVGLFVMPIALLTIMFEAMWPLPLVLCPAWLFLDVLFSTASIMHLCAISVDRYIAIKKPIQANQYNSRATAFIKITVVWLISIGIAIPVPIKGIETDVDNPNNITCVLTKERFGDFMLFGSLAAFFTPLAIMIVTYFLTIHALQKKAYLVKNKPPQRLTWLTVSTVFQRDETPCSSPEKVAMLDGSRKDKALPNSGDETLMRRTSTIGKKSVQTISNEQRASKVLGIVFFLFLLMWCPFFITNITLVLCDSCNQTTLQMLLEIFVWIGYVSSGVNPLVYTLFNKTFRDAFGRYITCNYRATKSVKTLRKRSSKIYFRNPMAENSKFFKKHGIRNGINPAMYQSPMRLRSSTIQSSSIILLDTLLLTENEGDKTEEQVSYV
T3 sequence (P35367 whole entry): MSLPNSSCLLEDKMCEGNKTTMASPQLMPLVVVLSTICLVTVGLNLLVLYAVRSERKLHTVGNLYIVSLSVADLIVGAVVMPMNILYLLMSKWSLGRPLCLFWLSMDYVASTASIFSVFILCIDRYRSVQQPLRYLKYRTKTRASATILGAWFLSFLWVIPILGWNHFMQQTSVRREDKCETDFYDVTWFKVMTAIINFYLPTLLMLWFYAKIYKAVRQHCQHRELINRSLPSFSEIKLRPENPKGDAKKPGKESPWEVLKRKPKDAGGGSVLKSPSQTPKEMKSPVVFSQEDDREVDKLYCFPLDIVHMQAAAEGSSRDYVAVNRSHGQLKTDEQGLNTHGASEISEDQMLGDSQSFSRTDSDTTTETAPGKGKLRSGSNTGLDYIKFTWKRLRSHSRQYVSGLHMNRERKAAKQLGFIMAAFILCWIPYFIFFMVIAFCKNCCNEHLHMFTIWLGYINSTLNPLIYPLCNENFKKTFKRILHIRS
T4 sequence (Q99720 whole entry): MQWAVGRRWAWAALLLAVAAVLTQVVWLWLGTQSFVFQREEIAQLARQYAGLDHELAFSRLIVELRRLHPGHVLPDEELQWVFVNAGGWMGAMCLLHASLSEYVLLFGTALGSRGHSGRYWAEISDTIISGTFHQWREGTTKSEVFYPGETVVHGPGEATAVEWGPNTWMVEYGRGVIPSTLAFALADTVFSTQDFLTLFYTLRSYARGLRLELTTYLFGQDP
Sequence of D(3) dopamine receptor (Homo sapiens) (P35462 whole entry): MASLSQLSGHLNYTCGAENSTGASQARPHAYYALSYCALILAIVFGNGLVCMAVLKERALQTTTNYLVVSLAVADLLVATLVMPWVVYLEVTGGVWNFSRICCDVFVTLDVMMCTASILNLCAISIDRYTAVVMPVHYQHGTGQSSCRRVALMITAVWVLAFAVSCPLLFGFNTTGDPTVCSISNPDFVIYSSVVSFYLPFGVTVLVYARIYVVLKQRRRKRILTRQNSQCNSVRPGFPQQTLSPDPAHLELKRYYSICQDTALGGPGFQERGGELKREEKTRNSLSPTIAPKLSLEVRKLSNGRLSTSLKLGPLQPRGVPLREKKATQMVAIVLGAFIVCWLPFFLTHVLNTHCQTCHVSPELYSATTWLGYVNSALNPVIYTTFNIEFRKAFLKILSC
Sequence of D(1B) dopamine receptor (Homo sapiens) (P21918 whole entry): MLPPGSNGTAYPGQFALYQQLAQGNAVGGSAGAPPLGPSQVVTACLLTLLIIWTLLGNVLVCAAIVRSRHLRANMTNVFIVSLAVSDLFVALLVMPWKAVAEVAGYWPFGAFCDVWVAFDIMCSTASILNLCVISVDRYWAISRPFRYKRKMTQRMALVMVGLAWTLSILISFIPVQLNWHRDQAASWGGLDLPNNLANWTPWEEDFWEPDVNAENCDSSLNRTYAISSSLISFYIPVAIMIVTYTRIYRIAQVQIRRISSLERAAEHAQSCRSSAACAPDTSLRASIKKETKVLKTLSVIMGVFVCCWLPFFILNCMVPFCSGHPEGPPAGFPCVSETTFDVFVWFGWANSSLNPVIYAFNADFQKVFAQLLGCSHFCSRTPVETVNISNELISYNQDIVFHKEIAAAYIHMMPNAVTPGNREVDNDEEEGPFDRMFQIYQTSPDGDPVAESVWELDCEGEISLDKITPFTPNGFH
Sequence of 5-hydroxytryptamine receptor 3A (Homo sapiens) (P46098 whole entry): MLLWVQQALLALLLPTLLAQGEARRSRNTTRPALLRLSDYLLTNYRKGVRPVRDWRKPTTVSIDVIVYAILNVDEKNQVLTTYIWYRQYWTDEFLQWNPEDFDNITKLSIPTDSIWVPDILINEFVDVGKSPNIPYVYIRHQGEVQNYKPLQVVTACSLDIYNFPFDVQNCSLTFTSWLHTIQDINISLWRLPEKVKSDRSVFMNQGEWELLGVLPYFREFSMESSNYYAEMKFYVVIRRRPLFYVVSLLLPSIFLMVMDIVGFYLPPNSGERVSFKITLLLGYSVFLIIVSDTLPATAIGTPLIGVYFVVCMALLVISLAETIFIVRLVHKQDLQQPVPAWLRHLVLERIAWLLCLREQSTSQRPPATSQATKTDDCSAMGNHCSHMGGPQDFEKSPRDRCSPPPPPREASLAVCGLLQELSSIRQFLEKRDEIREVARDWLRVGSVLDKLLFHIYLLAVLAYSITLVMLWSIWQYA
Sequence of Alpha-2C adrenergic receptor (Homo sapiens) (P18825 whole entry): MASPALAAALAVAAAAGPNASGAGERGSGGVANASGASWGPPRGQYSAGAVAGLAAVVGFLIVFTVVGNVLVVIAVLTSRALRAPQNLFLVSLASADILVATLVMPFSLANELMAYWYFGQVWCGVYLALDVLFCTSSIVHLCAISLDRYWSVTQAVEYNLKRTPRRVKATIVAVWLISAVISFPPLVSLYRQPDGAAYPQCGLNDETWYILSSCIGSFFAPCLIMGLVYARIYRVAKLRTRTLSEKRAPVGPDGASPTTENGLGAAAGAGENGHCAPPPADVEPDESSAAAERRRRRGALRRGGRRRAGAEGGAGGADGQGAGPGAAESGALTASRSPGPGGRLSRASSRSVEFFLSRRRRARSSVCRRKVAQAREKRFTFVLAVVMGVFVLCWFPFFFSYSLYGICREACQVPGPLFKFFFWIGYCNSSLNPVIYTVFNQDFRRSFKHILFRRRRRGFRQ
Sequence of 5-hydroxytryptamine receptor 2A (Homo sapiens) (P28223 whole entry): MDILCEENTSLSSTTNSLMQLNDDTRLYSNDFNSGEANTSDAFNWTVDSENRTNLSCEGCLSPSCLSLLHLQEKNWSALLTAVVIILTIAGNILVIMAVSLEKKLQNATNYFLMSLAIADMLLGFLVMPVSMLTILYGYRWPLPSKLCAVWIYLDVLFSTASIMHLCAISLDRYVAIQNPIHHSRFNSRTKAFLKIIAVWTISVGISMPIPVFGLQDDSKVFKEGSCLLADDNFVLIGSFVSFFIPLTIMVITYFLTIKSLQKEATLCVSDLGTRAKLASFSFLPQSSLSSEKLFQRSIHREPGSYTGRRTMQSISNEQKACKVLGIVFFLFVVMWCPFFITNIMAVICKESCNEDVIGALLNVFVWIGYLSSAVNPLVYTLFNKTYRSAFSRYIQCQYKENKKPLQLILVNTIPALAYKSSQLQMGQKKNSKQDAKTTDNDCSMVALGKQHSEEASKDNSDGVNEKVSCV
Sequence of Histamine H2 receptor (Homo sapiens) (P25021 whole entry): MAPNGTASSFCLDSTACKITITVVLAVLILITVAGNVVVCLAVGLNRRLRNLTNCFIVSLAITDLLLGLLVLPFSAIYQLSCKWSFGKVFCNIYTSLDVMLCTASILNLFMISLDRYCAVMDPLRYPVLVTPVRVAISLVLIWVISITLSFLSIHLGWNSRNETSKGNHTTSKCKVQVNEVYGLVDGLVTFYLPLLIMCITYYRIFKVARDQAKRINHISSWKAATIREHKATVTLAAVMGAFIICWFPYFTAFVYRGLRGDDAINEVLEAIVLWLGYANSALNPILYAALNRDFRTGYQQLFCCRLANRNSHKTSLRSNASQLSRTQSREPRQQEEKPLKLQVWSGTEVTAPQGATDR
Sequence of 5-hydroxytryptamine receptor 1B (Homo sapiens) (P28222 whole entry): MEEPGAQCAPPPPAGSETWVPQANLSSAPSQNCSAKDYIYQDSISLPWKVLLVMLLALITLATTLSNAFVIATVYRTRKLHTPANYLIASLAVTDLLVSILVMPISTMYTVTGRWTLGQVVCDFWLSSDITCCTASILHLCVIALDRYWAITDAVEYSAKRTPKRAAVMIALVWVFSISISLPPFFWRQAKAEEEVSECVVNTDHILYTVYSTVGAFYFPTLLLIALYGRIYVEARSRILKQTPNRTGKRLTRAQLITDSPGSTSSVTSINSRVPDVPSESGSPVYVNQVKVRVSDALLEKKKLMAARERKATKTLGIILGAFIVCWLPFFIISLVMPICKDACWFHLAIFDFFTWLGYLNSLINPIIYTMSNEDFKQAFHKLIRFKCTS
Sequence of 5-hydroxytryptamine receptor 1E (Homo sapiens) (P28566 whole entry): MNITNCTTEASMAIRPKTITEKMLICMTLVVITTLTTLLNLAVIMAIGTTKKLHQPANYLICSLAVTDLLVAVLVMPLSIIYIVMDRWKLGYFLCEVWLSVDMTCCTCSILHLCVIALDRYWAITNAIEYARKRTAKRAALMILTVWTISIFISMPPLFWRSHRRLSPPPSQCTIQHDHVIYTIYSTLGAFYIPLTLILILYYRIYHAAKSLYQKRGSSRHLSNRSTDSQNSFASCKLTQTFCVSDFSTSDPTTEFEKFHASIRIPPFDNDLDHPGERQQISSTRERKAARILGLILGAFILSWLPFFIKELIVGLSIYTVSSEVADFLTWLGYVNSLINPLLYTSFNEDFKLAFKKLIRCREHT

COc1cccc(CNC(=O)c2nc3scc(CN(C)Cc4ccccc4)c3c(=O)[nH]2)c1 [T-26f]
19 nM: Ki [3]
active: inhibition [10] 51% | inhibition [20] 84% | inhibition [27] 73.4% | inhibition [45] 80.7%
831 nM: Ki [2]
1600 nM: Ki [1]
263 nM: Ki [4]
inactive: inhibition [5] 15.8% | inhibition [6] -2.26% | inhibition [7] -0.959% | inhibition [8] -0.688% | inhibition [9] 14.9% | inhibition [11] 13.5% | inhibition [12] 20.4% | inhibition [13] 2.98% | inhibition [14] 3.76% | inhibition [15] -5.94% | inhibition [16] 12.5% | inhibition [17] 20.1% | inhibition [18] 14.4% | inhibition [19] 2.81% | inhibition [21] 19.6% | inhibition [22] -7.85% | inhibition [23] 2.84% | inhibition [24] -5.54% | inhibition [25] 14.2% | inhibition [26] 30.5% | inhibition [28] 30.7% | inhibition [29] 6.01% | inhibition [30] 21% | inhibition [31] 12.5% | inhibition [32] 12.9% | inhibition [33] 27.3% | inhibition [34] 17.4% | inhibition [35] 16.3% | inhibition [36] 30.9% | inhibition [37] -6.8% | inhibition [38] -8.97% | inhibition [39] 26.6% | inhibition [40] 2.67% | inhibition [41] -4.01% | inhibition [42] 32.4% | inhibition [43] 18.5% | inhibition [44] 12.7%

Source: ChEMBL document CHEMBL4507300 (2021)
